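Grown in 96-well plates, cells were treated for 48 hours with each compound at five concentrations. Insufficient inhibition: endpoint recorded as highest concentration tested. GI50 = concentration required for 50% inhibition of growth. TGI is the concentration that stops growth completely.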
Tests used:
Assay in all cases: growth of human tumour cells (NCI), 48 h
[1] = system: 786-0 renal
[2] = system: A498 renal
[3] = system: A549 NSCLC
[4] = system: CCRF-CEM leukemia
[5] = system: DU-145 prostate
[6] = system: EKVX NSCLC
[7] = system: HCT-116 colon
[8] = system: HOP-62 NSCLC
[9] = system: HOP-92 NSCLC
[10] = system: HS 578T breast
[11] = system: HT29 colon
[12] = system: IGROV1 ovarian
[13] = system: K-562 leukemia
[14] = system: LOX IMVI melanoma
[15] = system: M14 melanoma
[16] = system: MALME-3M melanoma
[17] = system: MOLT-4 leukemia
[18] = system: NCI-H226 lung
[19] = system: NCI-H23 lung
[20] = system: NCI-H460 lung
[21] = system: NCI/ADR-RES ovarian
[22] = system: OVCAR-3 ovarian
[23] = system: OVCAR-4 ovarian
[24] = system: OVCAR-5 ovarian
[25] = system: OVCAR-8 ovarian
[26] = system: RPMI-8226 leukemia
[27] = system: SF-295 CNS
[28] = system: SK-MEL-28 melanoma
[29] = system: SK-MEL-5 melanoma
[30] = system: SNB-19 CNS
[31] = system: SR leukemia
[32] = system: SW-620 colon
[33] = system: UACC-257 melanoma
[34] = system: ACHN renal
[35] = system: CAKI-1 renal
[36] = system: COLO 205 colon
[37] = system: HCC-2998 colon
[38] = system: HCT-15 colon
[39] = system: HL-60(TB) leukemia
[40] = system: KM12 colon
[41] = system: MCF7 breast
[42] = system: MDA-MB-231 breast
[43] = system: PC-3 prostate
[44] = system: SF-268 CNS
[45] = system: SK-MEL-2 melanoma
[46] = system: SK-OV-3 ovarian
[47] = system: SN12C renal
[48] = system: SNB-75 CNS
[49] = system: TK-10 renal
[50] = system: U251 CNS
[51] = system: UACC-62 melanoma
[52] = system: UO-31 renal
[53] = system: NCI-H522 lung
[54] = system: SF-539 CNS
[55] = system: MDA-MB-435
[56] = system: T-47D breast

## O=c1c2ccccc2nc2n1CCc1c-2[nH]c2ccc(Br)cc12
[1]
  TGI: > 100 µM
[2]
  TGI: > 100000 nM
[3]
  TGI: > 100 µM
[4]
  TGI: > 100 µM
[5]
  TGI: > 100 µM
[6]
  TGI: > 100 µM
[7]
  TGI: > 100 µM
[8]
  TGI: > 100 µM
[9]
  TGI: > 100000 nM
[10]
  TGI: > 100 µM
[11]
  TGI: > 100 µM
[12]
  TGI: > 100 µM
[13]
  TGI: > 100 µM
[14]
  TGI: > 100 µM
[15]
  TGI: > 100 µM
[16]
  TGI: > 100 µM
[17]
  TGI: > 100 µM
[18]
  TGI: > 100 µM
[19]
  TGI: > 100 µM
[20]
  TGI: > 100 µM
[21]
  TGI: > 100 µM
[22]
  TGI: > 100 µM
[23]
  TGI: > 100 µM
[24]
  TGI: > 100 µM
[25]
  TGI: > 100 µM
[26]
  TGI: > 100 µM
[27]
  TGI: > 100 µM
[28]
  TGI: > 100 µM
[29]
  TGI: > 100 µM
[30]
  TGI: > 100 µM
[31]
  TGI: > 100 µM
[32]
  TGI: > 100 µM
[33]
  TGI: > 100 µM

## COc1cc(-c2n[nH]nc2-c2ccc3c(c2)OCCO3)cc(OC)c1OC
[1]
  GI50: < 10 nM
  TGI: 13.5 µM
[2]
  GI50: 10.4 nM
  TGI: 1500 nM
[3]
  GI50: 22.9 nM
  TGI: 22.6 µM
[34]
  GI50: < 10 nM
  TGI: > 100 µM
[35]
  GI50: < 10 nM
  TGI: > 100000 nM
[4]
  GI50: 33.7 nM
  TGI: > 100 µM
[36]
  GI50: 26.7 nM
  TGI: 77.4 nM
[5]
  GI50: 25 nM
  TGI: > 100 µM
[37]
  GI50: 39.4 nM
  TGI: 17.5 µM
[7]
  GI50: < 10 nM
  TGI: 0.811 µM
[38]
  GI50: < 10 nM
  TGI: > 100 µM
[39]
  GI50: 18.9 nM
  TGI: 82.4 nM
[8]
  GI50: 18.2 nM
  TGI: 19.3 µM
[9]
  GI50: < 10 nM
  TGI: 543 nM
[10]
  GI50: 668 nM
  TGI: 64.2 µM
[11]
  GI50: 25.3 nM
  TGI: 12.3 µM
[12]
  GI50: 33.2 nM
  TGI: 30.3 µM
[13]
  GI50: < 10 nM
  TGI: > 100 µM
[40]
  GI50: < 10 nM
  TGI: 11.2 µM
[14]
  GI50: 17.5 nM
  TGI: 37.8 µM
[16]
  GI50: 17.6 µM
  TGI: 72.3 µM
[41]
  GI50: < 10 nM
  TGI: 37.9 µM
[42]
  GI50: 44.4 nM
  TGI: > 100 µM
[17]
  GI50: 39.9 nM
  TGI: 11.6 µM
[18]
  GI50: 60.9 nM
  TGI: 64.1 µM
[19]
  GI50: 48 nM
  TGI: 41.7 µM
[20]
  GI50: 24.6 nM
  TGI: 20 µM
[21]
  GI50: < 0.01 µM
  TGI: 69.7 µM
[22]
  GI50: < 10 nM
[23]
  GI50: 33.6 nM
  TGI: 57.1 µM
[24]
  GI50: 2180 nM
  TGI: > 100 µM
[25]
  GI50: 41.8 nM
  TGI: 35 µM
[43]
  GI50: 18.4 nM
  TGI: 39.4 µM
[26]
  GI50: 32.5 nM
  TGI: 11 µM
[44]
  GI50: 68.5 nM
  TGI: > 100 µM
[27]
  GI50: < 10 nM
  TGI: 42.8 µM
[45]
  GI50: < 10 nM
  TGI: 18.1 µM
[28]
  GI50: 2880 nM
  TGI: 34.8 µM
[29]
  GI50: < 10 nM
  TGI: 0.166 µM
[46]
  GI50: < 10 nM
  TGI: 12.7 µM
[47]
  GI50: 133 nM
  TGI: > 100 µM
[30]
  GI50: 29.4 nM
  TGI: > 100 µM
[48]
  GI50: < 10 nM
  TGI: 21.9 µM
[31]
  GI50: < 10 nM
  TGI: 23.9 µM
[32]
  GI50: < 10 nM
  TGI: > 100 µM
[49]
  GI50: 4570 nM
  TGI: 34.6 µM
[50]
  GI50: 20.1 nM
  TGI: 22.7 µM
[33]
  GI50: 3730 nM
  TGI: 23.1 µM
[51]
  GI50: 2280 nM
  TGI: 21.2 µM
[52]
  GI50: < 10 nM
  TGI: 24.6 µM

## O=C(CCCn1cnc([N+](=O)[O-])n1)NCCCn1ccnc1[N+](=O)[O-]
[1]
  TGI: > 100 µM
[2]
  TGI: > 100000 nM
[3]
  TGI: > 100 µM
[34]
  TGI: > 100 µM
[4]
  TGI: > 100 µM
[6]
  TGI: > 100 µM
[37]
  TGI: > 100 µM
[7]
  TGI: > 100 µM
[38]
  TGI: > 100 µM
[39]
  TGI: > 100000 nM
[8]
  TGI: > 100 µM
[10]
  TGI: > 100 µM
[11]
  TGI: > 100 µM
[13]
  TGI: > 100 µM
[40]
  TGI: > 100 µM
[16]
  TGI: > 100 µM
[41]
  TGI: > 100 µM
[17]
  TGI: > 100 µM
[18]
  TGI: > 100 µM
[19]
  TGI: > 100 µM
[20]
  TGI: > 100 µM
[53]
  TGI: > 100000 nM
[22]
  TGI: > 100 µM
[24]
  TGI: > 100 µM
[25]
  TGI: > 100 µM
[43]
  TGI: > 100 µM
[26]
  TGI: > 100 µM
[44]
  TGI: > 100 µM
[27]
  TGI: > 100 µM
[54]
  TGI: > 100 µM
[45]
  TGI: > 100 µM
[28]
  TGI: > 100 µM
[29]
  TGI: > 100 µM
[47]
  TGI: > 100 µM
[48]
  TGI: > 100 µM
[31]
  TGI: > 100 µM
[32]
  TGI: > 100 µM
[49]
  TGI: > 100 µM
[50]
  TGI: > 100 µM
[33]
  TGI: > 100 µM

## COc1cc(C(=O)/C=C/c2ccc(OCCCCCC[P+](c3ccccc3)(c3ccccc3)c3ccccc3)cc2)cc(OC)c1OC
[2]
  GI50: 710 nM
  TGI: 1970 nM
[34]
  GI50: 1500 nM
  TGI: 2.82 µM
[35]
  GI50: 1640 nM
  TGI: 2990 nM
[4]
  GI50: 557 nM
  TGI: 3.09 µM
[5]
  GI50: 698 nM
  TGI: 1.96 µM
[38]
  GI50: 1600 nM
  TGI: 3.13 µM
[39]
  GI50: 227 nM
  TGI: 643 nM
[40]
  GI50: 355 nM
  TGI: 1.31 µM
[15]
  GI50: 971 nM
  TGI: 3.18 µM
[55]
  GI50: 337 nM
  TGI: 1140 nM
[17]
  GI50: 559 nM
  TGI: 3 µM
[53]
  GI50: 342 nM
  TGI: 2090 nM
[21]
  GI50: 3.58 µM
  TGI: > 100 µM
[22]
  GI50: 347 nM
  TGI: 1.16 µM
[23]
  GI50: 374 nM
  TGI: 1.48 µM
[24]
  GI50: 754 nM
  TGI: 2.1 µM
[26]
  GI50: 214 nM
  TGI: 0.703 µM
[46]
  GI50: 1320 nM
  TGI: 2.7 µM
[30]
  GI50: 341 nM
  TGI: 1.31 µM
[32]
  GI50: 358 nM
  TGI: 1.36 µM
[56]
  GI50: 261 nM
  TGI: 1770 nM
[49]
  GI50: 1340 nM
  TGI: 2.81 µM
[33]
  GI50: 298 nM
  TGI: 1.26 µM
[52]
  GI50: 1460 nM
  TGI: 2.78 µM

— PubChem BioAssay (NCI)
